#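 Assay format: 96-well plates, 48-hour exposure. GI50: concentration for 50% inhibition of growth. At the TGI there is no net growth.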
# Tests used:
# Test in all cases: DTP human tumour cell line panel, 48 h
# OVCAR-8 ovarian = tested on: OVCAR-8 ovarian
# A549 NSCLC = tested on: A549 NSCLC
# K-562 leukemia = tested on: K-562 leukemia
# HOP-92 NSCLC = tested on: HOP-92 NSCLC
# SF-295 CNS = tested on: SF-295 CNS
# U251 CNS = tested on: U251 CNS
# MALME-3M melanoma = tested on: MALME-3M melanoma
# SNB-75 CNS = tested on: SNB-75 CNS
# HT29 colon = tested on: HT29 colon
# SW-620 colon = tested on: SW-620 colon
# RXF 393 renal = tested on: RXF 393 renal
# NCI-H23 lung = tested on: NCI-H23 lung
# NCI-H226 lung = tested on: NCI-H226 lung
# SK-MEL-28 melanoma = tested on: SK-MEL-28 melanoma
Compound,TGI (OVCAR-8 ovarian),TGI (A549 NSCLC),GI50 (K-562 leukemia),TGI (K-562 leukemia),TGI (HOP-92 NSCLC),GI50 (SF-295 CNS),TGI (SF-295 CNS),GI50 (U251 CNS),TGI (U251 CNS),TGI (MALME-3M melanoma),GI50 (SNB-75 CNS),TGI (SNB-75 CNS),GI50 (HT29 colon),TGI (HT29 colon),GI50 (SW-620 colon),TGI (SW-620 colon),TGI (RXF 393 renal),TGI (NCI-H23 lung),TGI (NCI-H226 lung),TGI (SK-MEL-28 melanoma)
COc1cc2cc(C(=O)N3C[C@H](CCl)c4c3cc(N)c3ccccc43)[nH]c2c(OC)c1OC,> 50 µM,> 50 µM,0.005 µM,> 50 µM,> 50 µM,0.005 µM,> 50 µM,0.005 µM,> 50 µM,0.0103 µM,0.0123 µM,0.0458 µM,0.005 µM,0.615 µM,0.005 µM,> 50 µM,–,–,–,–
CCCCOc1ccc(OCCCCCCCCCC[N+](C)(C)C)cc1,22 µM,15.2 µM,–,15.4 µM,3.65 µM,–,19.9 µM,–,9.16 µM,16 µM,–,6.44 µM,–,2.46 µM,–,14.9 µM,3.34 µM,11 µM,15.2 µM,18 µM
CN(C)CCNC(=O)c1cc(Cl)cc2ccc(-c3ccccc3)nc12,13.2 µM,12.4 µM,–,8.17 µM,9.35 µM,–,15.4 µM,–,15.3 µM,8.26 µM,–,14 µM,–,10.7 µM,–,13.4 µM,14.3 µM,14.4 µM,7.02 µM,16.1 µM
CSc1cc(=O)n2c3ccccc3c3ccnc1c32,> 100 µM,> 100 µM,–,> 100 µM,> 100 µM,–,> 100 µM,–,> 100 µM,> 100 µM,–,> 94.3 µM,–,> 100 µM,–,> 100 µM,> 100 µM,> 100 µM,> 100 µM,> 100 µM
O=S(=O)(O)c1ccc(N=Nc2ccc(N=Nc3ccc(/C=C/c4ccc(N=[N+]([O-])c5ccc(/C=C/c6ccc(N=Nc7ccc(N=Nc8ccc(S(=O)(=O)O)cc8)cc7)cc6S(=O)(=O)O)c(S(=O)(=O)O)c5)cc4S(=O)(=O)O)c(S(=O)(=O)O)c3)cc2)cc1,> 100 µM,> 100 µM,–,> 100 µM,> 100 µM,–,> 100 µM,–,> 100 µM,> 100 µM,–,> 100 µM,–,> 100 µM,–,> 100 µM,> 100 µM,> 100 µM,> 100 µM,> 100 µM
Cc1cc(C)nc(NS(=O)(=O)c2ccc(Nc3c4ccccc4nc4c(C(=O)N5CCN(CCOS(C)(=O)=O)CC5)cccc34)cc2)n1,> 100 µM,> 100 µM,–,> 100 µM,> 100 µM,–,> 100 µM,–,> 100 µM,> 100 µM,–,> 100 µM,–,> 100 µM,–,–,> 100 µM,> 100 µM,> 100 µM,> 100 µM
NCCCCNCCCNC(=O)c1nc(-c2nc(CCN)sc2Cl)sc1Cl,> 100 µM,> 100 µM,–,> 100 µM,> 100 µM,–,> 100 µM,–,> 100 µM,> 100 µM,–,> 100 µM,–,> 100 µM,–,> 100 µM,37.1 µM,> 100 µM,> 100 µM,> 100 µM

# — PubChem BioAssay (NCI)
